Measured values taken from PMC10247778, “PXL1 and SERKs act as receptor–coreceptor complexes for the CLE19 peptide to regulate pollen development” (Nature Communications, 2023).
“Also recorded” adds a separate entry of the source. Ends that are not written are not given here.

B1: CLAVATA3/EMBRYO SURROUNDING REGION-RELATED 19 (CLE19) peptide (peptide)
chain: RVIPTGPNPLHN
modifications: ends and bridges not checked
B2: CLAVATA3/EMBRYO SURROUNDING REGION-RELATED 19 (CLE19) peptide (peptide)
chain: RVIPTGPNPLHN

Biological target: PXL1^∆KD–SERK1^∆KD interaction
Experiment: Co-IP PXL1^∆KD-SERK1^∆KD in Nicotiana benthamiana
Type: cell-based, Arabidopsis
Conditions: N. benthamiana leaves, with or without peptide 3–4 h; GFP-Trap, anti-Myc
Description: The 825 bp SERK1 (SERK1^∆KD), 834 bp SERK2 (SERK2^∆KD) and the 927 bp SERK3/BAK1 (BAK1^∆KD) coding regions were amplified with the primers listed in Supplementary Table 3. The PCR products of SERK1^∆KD, SERK2^∆KD and BAK1^∆KD were inserted into the pCAMBIA1306-GFP vector at the KpnI and SalI sites to generate the pCAMBIA1306-SERK1^∆KD/2/BAK1^∆KD-GFP constructs. pCAMBIA1306-PXL^∆KD -MYC, pCAMBIA1306-SERK1^∆KD GFP and pCAMBIA1306-BAK1^∆KD-GFP were transferred into the Agrobacterium tumefaciens GV3101 strain.
The cultures were grown overnight in 2 x YT medium and resuspended to optical density at 600 nm (OD600) = 2.0 in an injection buffer (150 μM acetosyringone, 10 mM MgCl2 and 10 mM MES). […]
Total proteins were extracted from the N. benthamiana leaves with the extraction buffer (50 mM Tris-HCl (pH 7.5), 150 mM NaCl, 5 mM EDTA, 5% glycerol, 1% Triton X-100 with protease inhibitor, phosphatase inhibitor, and PMSF) and then incubated with GFP-Trap beads (Chromo Tek) at 4 °C for 4 h, followed by two washes (50 mM Tris-HCl (pH 7.5), 150 mM NaCl, 5 mM EDTA, 5% glycerol, and 0.01% Triton X-100). Proteins were separated on SDS-PAGE gels and detected by anti-Myc (GNI) antibody via western blots.

Question: With CLAVATA3 [CLV3] as the molecule, how does the “PXL1^∆KD-SERK1^∆KD interaction (co-IP)” value read?
Answer: no such interaction was detected in the absence of CLE19 or the presence of CLV3

Tested on: PXL1 (PXL1^LRR)
Experiment: Gel filtration-MALDI-TOF identification of peptides copurified with PXL1 LRR
Type: binding, Arabidopsis
Conditions: PXL1^LRR incubated with synthesized peptide mixture (0.1 mg each), 10 mM Bis-Tris pH 6.0, 100 mM NaCl, on ice 1 h, Superdex 200
Method: As part of an effort to identify cognate receptors for peptidyl ligands in Arabidopsis, a pool of synthetic CLE small peptides (Supplementary Table 1) was mixed with purified individual extracellular LRR domains of receptor-like kinases (RLKs). The putative RLK-ligand complexes were purified by gel-filtration, and the peptides were detected by mass spectrometry, as reported previously.
Purified PXL1^LRR protein (with buffer containing 10 mM Bis-Tris pH 6.0, 100 mM NaCl) was incubated with synthesized peptide mixture (0.1 mg for each; Supplementary Table 1) on ice for 1 h. Then, each mixture was subjected to gel filtration (Superdex 200, GE Healthcare) for analysis. The relevant peak fractions of PXL1^LRR were collected and 2 μl was used for analyzed by MALDI-TOF–mass spectrometry analysis.

Question: Which “CLE peptide copurified with PXL1” value does the source give for CLAVATA3 [CLV3] here?
Answer: interaction with PXL1 was not detected; also recorded: CLE19 was the only CLE peptide that co-purified with PXL1; also recorded: but not CLV3, CLE3, CLE6, and others

Question: With “CLE3: synthetic CLE small peptide of the pool (RLSPGGPDPRHH; ends and bridges not checked; UniProt Q3EDH8 72-83, looked up)” as the molecule, how does the “CLE peptide copurified with PXL1” value read?
Answer: CLE19 was the only CLE peptide that co-purified with PXL1; also recorded: but not CLV3, CLE3, CLE6, and others

Question: Which “CLE peptide copurified with PXL1” value does the source give for “CLE6: synthetic CLE small peptide of the pool (RVSPGGPDPQHH; ends and bridges not checked; UniProt Q8S8N3 70-81, looked up)” here?
Answer: CLE19 was the only CLE peptide that co-purified with PXL1; also recorded: but not CLV3, CLE3, CLE6, and others

Question: Which “CLE peptide copurified with PXL1” value does the source give for “CLE8: CLE peptide (RRVPTGPNPLHH; ends and bridges not checked; UniProt Q2V4E2 61-72, looked up)” here?
Answer: CLE19 was the only CLE peptide that co-purified with PXL1

Question: For “CLE9: CLE peptide (RLVPSGPNPLHN; ends and bridges not checked; UniProt Q9FZE4 109-120, looked up)”, which “CLE peptide copurified with PXL1” value is on record?
Answer: CLE19 was the only CLE peptide that co-purified with PXL1

Question: For “CLE11: CLE peptide (RVVPSGPNPLHH; ends and bridges not checked; UniProt Q3ECU1 88-99, looked up)”, which “CLE peptide copurified with PXL1” value is on record?
Answer: CLE19 was the only CLE peptide that co-purified with PXL1

Question: For “CLE12: CLE peptide (RRVPSGPNPLHH; ends and bridges not checked; UniProt Q29PU4 107-118, looked up)”, which “CLE peptide copurified with PXL1” value is on record?
Answer: CLE19 was the only CLE peptide that co-purified with PXL1

Question: Which “CLE peptide copurified with PXL1” value does the source give for “CLE14: CLE peptide (RLVPKGPNPLHN; ends and bridges not checked; UniProt Q3ECJ5 68-79, looked up)” here?
Answer: CLE19 was the only CLE peptide that co-purified with PXL1

Question: With “CLE16: CLE peptide (RLVHTGPNPLHN; ends and bridges not checked; UniProt Q8S8M2 92-103, looked up)” as the molecule, how does the “CLE peptide copurified with PXL1” value read?
Answer: CLE19 was the only CLE peptide that co-purified with PXL1

Question: With “CLE18: CLE peptide (RQIPTGPDPLHN; ends and bridges not checked; UniProt Q3ECH9 37-48, looked up)” as the molecule, how does the “CLE peptide copurified with PXL1” value read?
Answer: CLE19 was the only CLE peptide that co-purified with PXL1

Question: With “CLE20: CLE peptide (RKVKTGSNPLHN; ends and bridges not checked; UniProt Q3EDI6 70-81, looked up)” as the molecule, how does the “CLE peptide copurified with PXL1” value read?
Answer: CLE19 was the only CLE peptide that co-purified with PXL1

Question: Which “CLE peptide copurified with PXL1” value does the source give for “CLE25: CLE peptide (RKVPNGPDPIHN; ends and bridges not checked; UniProt Q8LFL4 58-69, looked up)” here?
Answer: CLE19 was the only CLE peptide that co-purified with PXL1

Question: Which “CLE peptide copurified with PXL1” value does the source give for “CLE40: CLE peptide (RQVPTGSDPLHH; ends and bridges not checked; UniProt Q9LXU0 62-73, looked up)” here?
Answer: CLE19 was the only CLE peptide that co-purified with PXL1

Question: With “CLE43: CLE peptide (RRIPSSPDRLHN; ends and bridges not checked; UniProt Q6IWB1 85-96, looked up)” as the molecule, how does the “CLE peptide copurified with PXL1” value read?
Answer: CLE19 was the only CLE peptide that co-purified with PXL1

Question: For “CLE45: CLE peptide (RRVRRGSDPIHN; ends and bridges not checked; UniProt Q6IWA9 107-118, looked up)”, which “CLE peptide copurified with PXL1” value is on record?
Answer: CLE19 was the only CLE peptide that co-purified with PXL1

Question: For “CLE46: CLE peptide (HKHPSGPNPTGN; ends and bridges not checked; UniProt Q8LDN4 58-69, looked up)”, which “CLE peptide copurified with PXL1” value is on record?
Answer: CLE19 was the only CLE peptide that co-purified with PXL1

Biological target: PXL2 (protein used for ITC) (Arabidopsis, UniProt Q9M0G7 24-1013)
Experiment: ITC; CLE19 with PXL2 and with PXY; conditions not told for these proteins
Conditions: both partners purified

Sequence of PXL2 (protein used for ITC) (Q9M0G7 24-1013): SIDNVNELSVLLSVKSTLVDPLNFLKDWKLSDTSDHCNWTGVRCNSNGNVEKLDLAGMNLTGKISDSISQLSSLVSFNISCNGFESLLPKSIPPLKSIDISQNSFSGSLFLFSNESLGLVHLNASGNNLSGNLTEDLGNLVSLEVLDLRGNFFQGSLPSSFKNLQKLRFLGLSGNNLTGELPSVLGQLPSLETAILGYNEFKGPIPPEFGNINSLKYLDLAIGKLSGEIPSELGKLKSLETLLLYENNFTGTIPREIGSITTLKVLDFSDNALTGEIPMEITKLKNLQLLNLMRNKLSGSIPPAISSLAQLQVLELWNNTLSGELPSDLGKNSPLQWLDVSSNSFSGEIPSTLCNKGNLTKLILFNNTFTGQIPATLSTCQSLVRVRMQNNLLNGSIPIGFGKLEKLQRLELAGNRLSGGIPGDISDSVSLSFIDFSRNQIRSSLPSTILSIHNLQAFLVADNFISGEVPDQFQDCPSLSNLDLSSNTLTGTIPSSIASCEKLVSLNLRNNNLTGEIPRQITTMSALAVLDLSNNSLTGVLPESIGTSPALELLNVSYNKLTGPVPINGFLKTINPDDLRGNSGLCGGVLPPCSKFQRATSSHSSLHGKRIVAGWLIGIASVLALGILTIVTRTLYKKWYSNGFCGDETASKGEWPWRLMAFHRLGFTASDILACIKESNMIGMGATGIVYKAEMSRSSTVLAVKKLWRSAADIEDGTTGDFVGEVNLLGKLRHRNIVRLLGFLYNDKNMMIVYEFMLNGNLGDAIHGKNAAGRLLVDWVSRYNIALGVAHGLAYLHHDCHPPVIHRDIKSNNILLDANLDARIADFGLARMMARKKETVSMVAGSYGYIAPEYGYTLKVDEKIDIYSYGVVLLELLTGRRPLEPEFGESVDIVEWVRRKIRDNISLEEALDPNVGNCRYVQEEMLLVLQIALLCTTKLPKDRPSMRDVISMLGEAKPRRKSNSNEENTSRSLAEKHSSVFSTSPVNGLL

Question: For B1, which Kd is on record?
Answer: 714 nM

Biological target: PXY LRR (Arabidopsis thaliana) (UniProt Q9FII5)
Experiment: ITC
Conditions: cited from earlier work

Sequence of PXY LRR (Arabidopsis thaliana) (Q9FII5 30-652): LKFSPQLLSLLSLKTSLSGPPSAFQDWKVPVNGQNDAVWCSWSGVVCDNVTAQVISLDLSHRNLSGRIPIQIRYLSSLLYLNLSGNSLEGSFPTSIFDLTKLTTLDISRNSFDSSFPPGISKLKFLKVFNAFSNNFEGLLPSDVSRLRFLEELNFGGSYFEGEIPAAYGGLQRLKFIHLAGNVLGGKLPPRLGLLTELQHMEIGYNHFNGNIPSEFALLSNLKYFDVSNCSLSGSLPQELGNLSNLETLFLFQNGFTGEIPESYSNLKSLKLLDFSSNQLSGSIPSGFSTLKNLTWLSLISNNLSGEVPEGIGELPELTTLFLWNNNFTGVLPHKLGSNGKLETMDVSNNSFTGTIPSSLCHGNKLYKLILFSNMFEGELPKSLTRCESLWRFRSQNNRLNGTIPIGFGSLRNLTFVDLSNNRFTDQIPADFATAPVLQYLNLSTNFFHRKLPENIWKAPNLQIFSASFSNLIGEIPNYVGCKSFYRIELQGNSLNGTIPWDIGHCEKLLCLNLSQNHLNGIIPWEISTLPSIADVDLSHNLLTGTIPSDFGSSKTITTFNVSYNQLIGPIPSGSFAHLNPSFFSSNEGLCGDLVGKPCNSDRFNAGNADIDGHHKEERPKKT

Question: For CLE41 (from UniProt Q84W98), which Kd is on record?
Answer: 33 nM

Biological target: PXL1 LRR (Arabidopsis thaliana) (UniProt Q9FRS6)
Experiment: ITC
Conditions: cited from earlier work

Question: For CLE41 (from UniProt Q84W98), which Kd is on record?
Answer: 2100 nM

Biological target: PXL2 LRR (Arabidopsis thaliana) (UniProt Q9M0G7)
Experiment: ITC
Conditions: cited from earlier work

Sequence of PXL2 LRR (Arabidopsis thaliana) (Q9M0G7 24-633): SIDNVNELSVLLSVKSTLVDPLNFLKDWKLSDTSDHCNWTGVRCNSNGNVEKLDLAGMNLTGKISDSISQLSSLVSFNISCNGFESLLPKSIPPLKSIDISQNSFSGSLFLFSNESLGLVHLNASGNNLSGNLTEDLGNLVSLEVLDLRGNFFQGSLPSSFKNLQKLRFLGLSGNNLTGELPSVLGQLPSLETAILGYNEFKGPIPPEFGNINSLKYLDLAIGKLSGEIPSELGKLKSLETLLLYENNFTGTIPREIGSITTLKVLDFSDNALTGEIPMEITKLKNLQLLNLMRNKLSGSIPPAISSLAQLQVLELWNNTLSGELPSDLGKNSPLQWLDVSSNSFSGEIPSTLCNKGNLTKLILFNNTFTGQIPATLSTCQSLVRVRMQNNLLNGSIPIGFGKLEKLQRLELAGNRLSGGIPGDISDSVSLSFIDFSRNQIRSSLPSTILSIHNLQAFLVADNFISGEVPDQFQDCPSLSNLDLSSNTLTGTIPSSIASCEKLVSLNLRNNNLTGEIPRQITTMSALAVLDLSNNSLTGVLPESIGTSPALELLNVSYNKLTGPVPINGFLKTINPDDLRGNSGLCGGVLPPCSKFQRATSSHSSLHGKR

Question: Which Kd does the source give for CLE41 (from UniProt Q84W98) here?
Answer: 9900 nM

Tested on: PXL1 (PXL1-FLAG)
Experiment: In vivo phosphorylation assay, Phos-tag SDS-PAGE and western blot
Type: cell-based, Arabidopsis
Conditions: 10-day-old pPXL1::PXL1-FLAG seedlings, 20 µM peptide, 1.5 h; Phos-tag gel, anti-FLAG; λpp control
Method: Ten-day-old […] transgenic seedlings were tested to observe the phosphorylation status of PXL1. The seedlings were cultured in 1/2 MS liquid medium treated with mock or 20 μM CLE19, CLE19[…] or CLV3 peptide for 1.5 h and then ground to a fine powder in liquid N2 for protein extraction performed as described above. The extracted protein was analyzed by Phos-tag (Wako) gel and immunoblotting using anti-FLAG (GNI) antibody. The anti-HSP70 (Abmart) antibody was used to determine the amount of input protein. Anti-FLAG beads (Abmart) were used for immunoprecipitation to purify the PXL1-FLAG protein. Anti-pS/T (ECM) was used to detect the phosphorylation status of the PXL1 protein after CLE19 treatment. The seedling protein extracted was also treated with λpp (NEB) at 30 °C for 0.5 h and then analyzed by anti-FLAG and anti-HSP antibodies.

Question: With CLAVATA3 [CLV3] as the molecule, how does the “PXL1 phosphorylation (Phos-tag migration)” value read?
Answer: Neither CLE19G6T nor CLV3 induced the phosphorylation-related migration of PXL1; also recorded: PXL1 phosphorylation was not induced

Question: With “CLE19G6T: functionally inactive CLE19G6T (RVIPTTPNPLHN; ends and bridges not checked; UniProt Q8W261 62-73, looked up, variant G6T)” as the molecule, how does the “PXL1 phosphorylation (Phos-tag migration)” value read?
Answer: Neither CLE19G6T nor CLV3 induced the phosphorylation-related migration of PXL1; also recorded: PXL1 phosphorylation was not induced; also recorded: lost the ability of inducing PXL1 phosphorylation

Biological target: T1, PXL1^LRR (extracellular LRR domain of PXY-LIKE1, residues 1-639, 6xHis) (Arabidopsis, UniProt Q9FRS6 24-639)
T1 construct: signal peptide in the construct; PXL1 (PXY-LIKE1), Arabidopsis, AT1G08590, LRR domains, residues 1-639; also called PXL1 ectodomain; PXL1^LRR-6×His; source: High Five cells, purified (Ni-NTA, size-exclusion chromatography)
T1 sequence (looked up): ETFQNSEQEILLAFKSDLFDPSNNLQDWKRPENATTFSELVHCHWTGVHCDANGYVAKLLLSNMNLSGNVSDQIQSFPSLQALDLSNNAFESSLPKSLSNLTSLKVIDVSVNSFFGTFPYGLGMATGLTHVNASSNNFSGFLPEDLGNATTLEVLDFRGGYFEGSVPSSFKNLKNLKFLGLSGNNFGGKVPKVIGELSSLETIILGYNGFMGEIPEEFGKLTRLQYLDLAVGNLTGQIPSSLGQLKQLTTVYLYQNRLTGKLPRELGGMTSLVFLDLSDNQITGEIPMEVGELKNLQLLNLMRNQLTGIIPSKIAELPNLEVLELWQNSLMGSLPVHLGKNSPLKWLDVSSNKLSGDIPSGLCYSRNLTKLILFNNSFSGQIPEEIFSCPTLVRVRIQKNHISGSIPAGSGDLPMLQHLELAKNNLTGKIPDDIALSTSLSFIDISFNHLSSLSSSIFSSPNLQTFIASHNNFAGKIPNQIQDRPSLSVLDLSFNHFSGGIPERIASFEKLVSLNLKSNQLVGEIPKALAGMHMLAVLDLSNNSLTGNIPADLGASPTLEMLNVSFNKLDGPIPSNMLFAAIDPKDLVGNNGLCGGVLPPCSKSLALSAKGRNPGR
Experiment: ITC; ITC200; 1 mM CLE19 titrated into 0.1 mM PXL1^LRR in the cell, 20 injections; 10 mM Bis-Tris pH 6.0, 100 mM NaCl; 25 °C
Conditions: both partners purified

Question: For B2, which Kd is on record?
Answer: ~346 nM
